Assay [1] has as its system Mixed bacteria: equal mixture of Staphylococcus aureus (ATCC No. 6538), Pseudomonas aeruginosa (ATCC No. 9027), and Escherichia coli (ATCC No. 8739). The assay can be described thus: Preservative challenge test against mixed bacteria in anionic protein shampoo. It counts as cell-based. On the procedure: Mixed bacteria challenge tests were performed by adding approximately 1-5×10^6 organisms per gram of formulation, the organisms comprising an equally divided mixture of Staphylococcus aureus (ATCC No. 6538), Pseudomonas aeruginosa (ATCC No. 9027), and Escherichia coli (ATCC No. 8739) incubated at 36° C. on nutrient agar […] 24 hours prior to testing. The test samples were incubated at 23° C. (room temperature) for the number of days indicated, after which an aliquot of the sample was taken and diluted stepwise to a 10^6 fold reduction in concentration. The diluted samples were plated out on tryptic soy agar and incubated for 48 hours at 36° C. After incubation, readings of the total number of colony forming units per gram (cfu/g) were made on the samples. Table 3 illustrates the levels at which the individual components Glydant®2000 and DHA are effective and ineffective against bacteria.

The test system is the same in assay [2]. The assay can be described thus: Synergy at Day 14 (Kull method, QA/Qa+QB/Qb) from mixed bacteria challenge test. It counts as cell-based. The following applies: DHA alone. On the procedure: A synergistic effect is a response to a combination of two or more components that produce an effect greater than the sum of their individual effects. […] E. Kull et al., “Mixtures of Quaternary Ammonium Compounds and Long-chain Fatty Acids as Antifungal Agents”, Applied Microbiology, 9:538-541 (1961). The synergism value is determined by the formula: […]
where QA is the quantity of Compound A in mixture, producing an endpoint; Qa is the quantity of Compound a acting alone, producing an endpoint; QB is the concentration of Compound B in the mixture, producing an endpoint. Qb is the concentration of Compound b acting alone, producing an endpoint.
When the value of (QA/Qa+QB/Qb) is less than one, the mixture is synergistic. Values for (QA/Qa+QB/Qb) of 1 and greater than 1, represent an additive effect and an antagonistic effect, respectively. According to this method of measuring synergism, the quantity of each component in the various mixtures is compared with the quantity of pure component that is required to reach the same endpoint or to produce the same microbiological effect as the mixture. […]

[3] abbreviates: 0.150% preservative as supplied.

Structures are written as SMILES.

Regarding `CC(=O)C1C(=O)C=C(C)OC1=O` (stereo not shown) [DHA, dehydroacetic acid], in assay [1] (setting [3]), the “Day 0 cfu/g.” value is reported as 3.0 × 10^6 cfu/g, the “Day 7 cfu/g.” value is reported as 8.0 × 10^3 cfu/g and the “Day 14 cfu/g.” value is reported as 1.0 × 10^6 cfu/g. In assay [1] (0.20% preservative as supplied), the “Day 0 cfu/g.” value is given as 3.0 × 10^6 cfu/g, the “Day 7 cfu/g.” value was 1.0 × 10^3 cfu/g and the “Day 14 cfu/g.” value is below 10 cfu/g. In addition, the “Qb (concentration of Compound b acting alone, producing an endpoint)” value in assay [2] is listed as 0.2%.

The values are drawn from patent US20040102501A1, “Stable, low free formaldehyde, synergistic antimicrobial compositions of aldehyde donors and dehydroacetic acid” (priority 2002, published 2004).
